From article PMC11206203, “Peptide macrocyclisation via intramolecular interception of visible-light-mediated desulfurisation” (Chemical Science, 2024)

Assay: C(sp3)-C(sp3) bond formation by visible-light-mediated Cys desulfurisation: alanyl radical adds to terminal alkene of allylglycine (or O-allyl Ser, pentenylGly, acrylamide); TCEP 50 eq (25 mM), (Ir[dF(CF3)ppy]2(dtbpy))PF6 1 mol%, 450 nm blue LED; unprotected peptides
Conditions: 6 M Gdn.HCl, 0.1 M Na2HPO4 pH 7.5-8.0 / MeCN 9:1, 0.5 mM, 25.0 °C

CCCC[C@@H]1NC(=O)[C@H](CO)NC(=O)[C@H](CC(=O)O)NC(=O)CNC(=O)[C@H](C(C)C)NC(=O)[C@H](CCC(N)=O)NC(=O)[C@@H](NC(=O)[C@H](CC(C)C)NC(=O)[C@H](Cc2c[nH]cn2)NC(=O)[C@H](CCCNC(=N)N)NC(C)=O)CCCC[C@@H](C(=O)N[C@@H](CCCNC(=N)N)C(=O)N[C@@H](CO)C(=O)N[C@H](C(N)=O)[C@@H](C)CC)NC1=O
ring closure, isolated yield (from C=CC[C@H](NC(=O)[C@H](CC(C)C)NC(=O)[C@H](Cc1c[nH]cn1)NC(=O)[C@H](CCCNC(=N)N)NC(C)=O)C(=O)N[C@@H](CCC(N)=O)C(=O)N[C@H](C(=O)NCC(=O)N[C@@H](CC(=O)O)C(=O)N[C@@H](CO)C(=O)N[C@@H](CCCC)C(=O)N[C@@H](CS)C(=O)N[C@@H](CCCNC(=N)N)C(=O)N[C@@H](CO)C(=O)N[C@H](C(N)=O)[C@@H](C)CC)C(C)C, 26-membered ring): 23%

CC(=O)N[C@H]1CCCC[C@@H](C(N)=O)NC(=O)[C@H](CCC(=O)O)NC(=O)[C@H](Cc2ccccc2)NC(=O)[C@H](C)NC1=O [Ac-(allylGly)-Ala-Phe-Glu-Cys-NH2]
ring closure, isolated yield (from C=CC[C@H](NC(C)=O)C(=O)N[C@@H](C)C(=O)N[C@@H](Cc1ccccc1)C(=O)N[C@@H](CCC(=O)O)C(=O)N[C@@H](CS)C(N)=O, 17-membered ring): 74%

CSCC[C@@H]1NC(=O)[C@@H]2CCCN2C(=O)[C@H](CCCNC(=N)N)NC(=O)[C@@H](NC(C)=O)CCCC[C@@H](C(N)=O)NC(=O)[C@H](Cc2c[nH]cn2)NC1=O [Ac-(allylGly)-Arg-Pro-Met-His-Cys-NH2]
ring closure, isolated yield (from C=CC[C@H](NC(C)=O)C(=O)N[C@@H](CCCNC(=N)N)C(=O)N1CCC[C@H]1C(=O)N[C@@H](CCSC)C(=O)N[C@@H](Cc1c[nH]cn1)C(=O)N[C@@H](CS)C(N)=O, 20-membered ring): 48%

CC(=O)N[C@H]1CCCC[C@@H](C(N)=O)NC(=O)[C@H](C(C)C)NC(=O)[C@H](CCCNC(=N)N)NC(=O)[C@@H]2CCCN2C(=O)[C@H](Cc2c[nH]cn2)NC(=O)[C@H](CC(N)=O)NC1=O [Ac-(allylGly)-Asn-His-Pro-Arg-Val-Cys-NH2]
ring closure, isolated yield (from C=CC[C@H](NC(C)=O)C(=O)N[C@@H](CC(N)=O)C(=O)N[C@@H](Cc1c[nH]cn1)C(=O)N1CCC[C@H]1C(=O)N[C@@H](CCCNC(=N)N)C(=O)N[C@H](C(=O)N[C@@H](CS)C(N)=O)C(C)C, 23-membered ring): 32%

CC[C@H](C)[C@@H]1NC(=O)[C@H](CCCCN)NC(=O)[C@H](Cc2ccc(O)cc2)NC(=O)[C@H](CO)NC(=O)[C@H](CC(=O)O)NC(=O)[C@@H](NC(C)=O)CCCC[C@@H](C(N)=O)NC1=O [Ac-(allylGly)-Asp-Ser-Tyr-Lys-Ile-Cys-NH2]
ring closure, isolated yield (from C=CC[C@H](NC(C)=O)C(=O)N[C@@H](CC(=O)O)C(=O)N[C@@H](CO)C(=O)N[C@@H](Cc1ccc(O)cc1)C(=O)N[C@@H](CCCCN)C(=O)N[C@H](C(=O)N[C@@H](CS)C(N)=O)[C@@H](C)CC, 23-membered ring): 58%

CCCC[C@@H]1NC(=O)[C@H](CO)NC(=O)[C@H](CC(=O)O)NC(=O)CNC(=O)[C@H](C(C)C)NC(=O)[C@H](CCC(N)=O)NC(=O)[C@@H](NC(C)=O)CCCC[C@@H](C(N)=O)NC1=O [Ac-(allylGly)-Gln-Val-Gly-Asp-Ser-Nle-Cys-NH2]
ring closure, isolated yield (from C=CC[C@H](NC(C)=O)C(=O)N[C@@H](CCC(N)=O)C(=O)N[C@H](C(=O)NCC(=O)N[C@@H](CC(=O)O)C(=O)N[C@@H](CO)C(=O)N[C@@H](CCCC)C(=O)N[C@@H](CS)C(N)=O)C(C)C, 26-membered ring): 76%

CC(=O)N[C@H]1CCCC[C@@H](C(N)=O)NC(=O)[C@H](Cc2c[nH]c3ccccc23)NC(=O)[C@H](CCC(N)=O)NC(=O)[C@H](CC(C)C)NC(=O)[C@H](CCC(=O)O)NC1=O [Ac-(allylGly)-Glu-Leu-Gln-Trp-Cys-NH2]
ring closure, isolated yield (from C=CC[C@H](NC(C)=O)C(=O)N[C@@H](CCC(=O)O)C(=O)N[C@@H](CC(C)C)C(=O)N[C@@H](CCC(N)=O)C(=O)N[C@@H](Cc1c[nH]c2ccccc12)C(=O)N[C@@H](CS)C(N)=O, 20-membered ring): 37%

CC[C@H](C)[C@@H]1NC(=O)[C@@H](NC(C)=O)CCCC[C@@H](C(N)=O)NC(=O)[C@H](CCCNC(=N)N)NC(=O)[C@H](Cc2c[nH]c3ccccc23)NC1=O [Ac-(allylGly)-Ile-Trp-Arg-Cys-NH2]
ring closure, isolated yield (from C=CC[C@H](NC(C)=O)C(=O)N[C@H](C(=O)N[C@@H](Cc1c[nH]c2ccccc12)C(=O)N[C@@H](CCCNC(=N)N)C(=O)N[C@@H](CS)C(N)=O)[C@@H](C)CC, 17-membered ring): 59%

CSCC[C@@H]1NC(=O)[C@H](Cc2ccc(O)cc2)NC(=O)[C@H](CC(C)C)NC(=O)[C@@H](NC(C)=O)CCCC[C@@H](C(N)=O)NC1=O [Ac-(allylGly)-Leu-Tyr-Met-Cys-NH2]
ring closure, isolated yield (from C=CC[C@H](NC(C)=O)C(=O)N[C@@H](CC(C)C)C(=O)N[C@@H](Cc1ccc(O)cc1)C(=O)N[C@@H](CCSC)C(=O)N[C@@H](CS)C(N)=O, 17-membered ring): 69%

CC[C@H](C)[C@@H]1NC(=O)[C@H](CCCCN)NC(=O)[C@@H](NC(C)=O)CCCC[C@@H](C(N)=O)NC(=O)[C@H](Cc2ccc(O)cc2)NC(=O)[C@H](CO)NC1=O [Ac-(allylGly)-Lys-Ile-Ser-Tyr-Cys-NH2]
ring closure, isolated yield (from C=CC[C@H](NC(C)=O)C(=O)N[C@@H](CCCCN)C(=O)N[C@H](C(=O)N[C@@H](CO)C(=O)N[C@@H](Cc1ccc(O)cc1)C(=O)N[C@@H](CS)C(N)=O)[C@@H](C)CC, 20-membered ring): 64%

CC(=O)N[C@H]1CCCC[C@@H](C(N)=O)NC(=O)[C@H](CCCCN)NC(=O)[C@@H]2CCCN2C(=O)[C@H]([C@@H](C)O)NC1=O [Ac-(allylGly)-Thr-Pro-Lys-Cys-NH2]
ring closure, isolated yield (from C=CC[C@H](NC(C)=O)C(=O)N[C@H](C(=O)N1CCC[C@H]1C(=O)N[C@@H](CCCCN)C(=O)N[C@@H](CS)C(N)=O)[C@@H](C)O, 17-membered ring): 48%

CC(=O)N[C@H]1CCCC[C@@H](C(N)=O)NC(=O)[C@H](CC(=O)O)NC(=O)CNC(=O)[C@H](C(C)C)NC1=O [Ac-(allylGly)-Val-Gly-Asp-Cys-NH2]
ring closure, isolated yield (from C=CC[C@H](NC(C)=O)C(=O)N[C@H](C(=O)NCC(=O)N[C@@H](CC(=O)O)C(=O)N[C@@H](CS)C(N)=O)C(C)C, 17-membered ring): 54%

CC(=O)N[C@H]1CCCC[C@@H](C(N)=O)NC(=O)[C@H](CCC(N)=O)NC(=O)[C@H](Cc2c[nH]cn2)NC(=O)[C@H](C(C)C)NC1=O [Ac-(allylGly)-Val-His-Gln-Cys-NH2]
ring closure, isolated yield (from C=CC[C@H](NC(C)=O)C(=O)N[C@H](C(=O)N[C@@H](Cc1c[nH]cn1)C(=O)N[C@@H](CCC(N)=O)C(=O)N[C@@H](CS)C(N)=O)C(C)C, 17-membered ring): 59%
